US7244431B2, “Allergy vaccines and their preparation” (priority 2000, dated 2007)

What was measured:
[1] = tested on: IgE antibodies in sera from birch pollen allergic patients; assay: ELISA detection of peptide- and rBet v 1-specific IgE antibodies; assay type: binding, human
Summary of the method: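 Sera from 60 birch pollen allergic patients (rhinoconjunctivitis and/or asthma; skin prick and CAP RAST characterized) plus one non-atopic individual, diluted 1:3, incubated overnight at 4 °C on coated plates. Bound IgE detected with 1:1000 alkaline-phosphatase-coupled mouse anti-human IgE.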

[2] = tested on: birch pollen allergic patients; assay: Skin prick testing of allergic patients; assay type: in vivo, human; details: 100 μg/ml
Description: SPTs were performed on the individuals forearms as described ([…]. et al. (1997) J. Clin Invest. 99, 1673-168; Dreborg S: (1989) J. Am. Acad. DerMatol. 21, 820-821). […] In addition standardized skin prick solutions (birch pollen extract and histamine) (Allergopharma, Reinbek, Germany) were tested. Reactions were recorded 20 minutes after SPT by photography and by transferring the ballpoint pen-surrounded wheal area with a scotch tape to paper.

[3] = NMR analysis for residual secondary or tertiary structure; assay type: physicochemical; details: water solution
Description: NMR was then used to check for residual secondary or tertiary structure. Compared to other spectroscopical approaches, this technique has the advantage that it provides positional information along the sequence.
Peptides were examined for tertiary and/or secondary structure by one and two-dimensional nuclear magnetic resonance (NMR) on a UNITY VARIAN 600 MHz spectrometer equipped with z-shielded gradient coils using 0.8-1.0 mM samples in 90% H2O/10% D2O, 20 mM potassium phosphate buffer pH 7.0, at 20° C. […] Mixing times used were 70 ms and 150 or 200 ms for TOCSY and NOESY experiments, respectively.
The absence of ring current shifted peaks in the region of the spectra below 0.5 ppm typical of well folded proteins is also a feature common to the spectra of the Bet v 1 peptides (data not shown). […] This peptide (P5), that in the Bet v 1 structure spans the whole C-terminal helix probably tends to form helical structures that aggregate in water solution.

Sequence: CKAEQVKASKEMGETLLRAVESYLLAHSDAYN [Peptide P5, Bet v 1-derived synthetic peptide, position aa 130-160, one cysteine added]
- IgE (OD) ([1]; serum of NHS, non-allergic control individual): — (Dashes indicate reactivities below the cut-off level (OD=0.050))
- IgE (OD) ([1]; serum of patient 1): — (Dashes indicate reactivities below the cut-off level (OD=0.050))
- IgE (OD) ([1]; serum of patient 2): — (Dashes indicate reactivities below the cut-off level (OD=0.050))
- IgE (OD) ([1]; serum of patient 3): — (Dashes indicate reactivities below the cut-off level (OD=0.050))
- IgE (OD) ([1]; serum of patient 4): — (Dashes indicate reactivities below the cut-off level (OD=0.050))
- IgE (OD) ([1]; serum of patient 5): — (Dashes indicate reactivities below the cut-off level (OD=0.050))
- IgE (OD) ([1]; serum of patient 6): — (Dashes indicate reactivities below the cut-off level (OD=0.050))
- IgE (OD) ([1]; serum of patient 7): — (Dashes indicate reactivities below the cut-off level (OD=0.050))
- IgE (OD) ([1]; serum of patient 8): — (Dashes indicate reactivities below the cut-off level (OD=0.050))
- IgE (OD) ([1]; serum of patient 9): — (Dashes indicate reactivities below the cut-off level (OD=0.050))
- IgE (OD) ([1]; serum of patient 10): — (Dashes indicate reactivities below the cut-off level (OD=0.050))
- IgE (OD) ([1]; serum of patient 11): — (Dashes indicate reactivities below the cut-off level (OD=0.050))
- IgE (OD) ([1]; serum of patient 12): — (Dashes indicate reactivities below the cut-off level (OD=0.050))
- IgE (OD) ([1]; serum of patient 13): — (Dashes indicate reactivities below the cut-off level (OD=0.050))
- IgE (OD) ([1]; serum of patient 14): — (Dashes indicate reactivities below the cut-off level (OD=0.050))
- IgE (OD) ([1]; serum of patient 15): — (Dashes indicate reactivities below the cut-off level (OD=0.050))
- IgE (OD) ([1]; serum of patient 16): — (Dashes indicate reactivities below the cut-off level (OD=0.050))
- IgE (OD) ([1]; serum of patient 17): — (Dashes indicate reactivities below the cut-off level (OD=0.050))
- IgE (OD) ([1]; serum of patient 18): — (Dashes indicate reactivities below the cut-off level (OD=0.050))
- IgE (OD) ([1]; serum of patient 19): — (Dashes indicate reactivities below the cut-off level (OD=0.050))
- IgE (OD) ([1]; serum of patient 20): — (Dashes indicate reactivities below the cut-off level (OD=0.050))
- IgE (OD) ([1]; serum of patient 21): — (Dashes indicate reactivities below the cut-off level (OD=0.050))
- IgE (OD) ([1]; serum of patient 22): — (Dashes indicate reactivities below the cut-off level (OD=0.050))
- IgE (OD) ([1]; serum of patient 23): — (Dashes indicate reactivities below the cut-off level (OD=0.050))
- IgE (OD) ([1]; serum of patient 24): — (Dashes indicate reactivities below the cut-off level (OD=0.050))
- IgE (OD) ([1]; serum of patient 25): — (Dashes indicate reactivities below the cut-off level (OD=0.050))
- IgE (OD) ([1]; serum of patient 26): — (Dashes indicate reactivities below the cut-off level (OD=0.050))
- IgE (OD) ([1]; serum of patient 27): — (Dashes indicate reactivities below the cut-off level (OD=0.050))
- IgE (OD) ([1]; serum of patient 28): — (Dashes indicate reactivities below the cut-off level (OD=0.050))
- IgE (OD) ([1]; serum of patient 29): — (Dashes indicate reactivities below the cut-off level (OD=0.050))
- IgE (OD) ([1]; serum of patient 30): — (Dashes indicate reactivities below the cut-off level (OD=0.050))
- IgE (OD) ([1]; serum of patient 31): — (Dashes indicate reactivities below the cut-off level (OD=0.050))
- IgE (OD) ([1]; serum of patient 32): — (Dashes indicate reactivities below the cut-off level (OD=0.050))
- IgE (OD) ([1]; serum of patient 33): — (Dashes indicate reactivities below the cut-off level (OD=0.050))
- IgE (OD) ([1]; serum of patient 34): — (Dashes indicate reactivities below the cut-off level (OD=0.050))
- IgE (OD) ([1]; serum of patient 35): — (Dashes indicate reactivities below the cut-off level (OD=0.050))
- IgE (OD) ([1]; serum of patient 36): — (Dashes indicate reactivities below the cut-off level (OD=0.050))
- IgE (OD) ([1]; serum of patient 37): — (Dashes indicate reactivities below the cut-off level (OD=0.050))
- IgE (OD) ([1]; serum of patient 38): — (Dashes indicate reactivities below the cut-off level (OD=0.050))
- IgE (OD) ([1]; serum of patient 39): — (Dashes indicate reactivities below the cut-off level (OD=0.050))
- IgE (OD) ([1]; serum of patient 40): — (Dashes indicate reactivities below the cut-off level (OD=0.050))
- IgE (OD) ([1]; serum of patient 41): — (Dashes indicate reactivities below the cut-off level (OD=0.050))
- IgE (OD) ([1]; serum of patient 42): — (Dashes indicate reactivities below the cut-off level (OD=0.050))
- IgE (OD) ([1]; serum of patient 43): — (Dashes indicate reactivities below the cut-off level (OD=0.050))
- IgE (OD) ([1]; serum of patient 44): — (Dashes indicate reactivities below the cut-off level (OD=0.050))
- IgE (OD) ([1]; serum of patient 45): — (Dashes indicate reactivities below the cut-off level (OD=0.050))
- IgE (OD) ([1]; serum of patient 46): — (Dashes indicate reactivities below the cut-off level (OD=0.050))
- IgE (OD) ([1]; serum of patient 47): — (Dashes indicate reactivities below the cut-off level (OD=0.050))
- IgE (OD) ([1]; serum of patient 48): — (Dashes indicate reactivities below the cut-off level (OD=0.050))
- IgE (OD) ([1]; serum of patient 49): — (Dashes indicate reactivities below the cut-off level (OD=0.050))
- IgE (OD) ([1]; serum of patient 50): — (Dashes indicate reactivities below the cut-off level (OD=0.050))
- IgE (OD) ([1]; serum of patient 51): — (Dashes indicate reactivities below the cut-off level (OD=0.050))
- IgE (OD) ([1]; serum of patient 52): — (Dashes indicate reactivities below the cut-off level (OD=0.050))
- IgE (OD) ([1]; serum of patient 53): — (Dashes indicate reactivities below the cut-off level (OD=0.050))
- IgE (OD) ([1]; serum of patient 54): — (Dashes indicate reactivities below the cut-off level (OD=0.050))
- IgE (OD) ([1]; serum of patient 55): — (Dashes indicate reactivities below the cut-off level (OD=0.050))
- IgE (OD) ([1]; serum of patient 56): — (Dashes indicate reactivities below the cut-off level (OD=0.050))
- IgE (OD) ([1]; serum of patient 57): — (Dashes indicate reactivities below the cut-off level (OD=0.050))
- IgE (OD) ([1]; serum of patient 58): — (Dashes indicate reactivities below the cut-off level (OD=0.050))
- IgE (OD) ([1]; serum of patient 59): — (Dashes indicate reactivities below the cut-off level (OD=0.050))
- IgE (OD) ([1]; serum of patient 60): — (Dashes indicate reactivities below the cut-off level (OD=0.050))
- mean wheal diameter ([2]; individual 1): 0 mm
- mean wheal diameter ([2]; individual 2): 0 mm
- mean wheal diameter ([2]; individual 3): 0 mm
- mean wheal diameter ([2]; individual 4): 0 mm
- mean wheal diameter ([2]; individual 5): 0 mm
- mean wheal diameter ([2]; individual 6 (allergic, without birch pollen allergy)): 0 mm
- aggregation (NMR) [3]: unusually broad resonances suggesting aggregation
